Assay results from patent publication US6528494B2 (priority 1996, dated 2003).
Counter-ions that a name gives are not always drawn.

Tests used:
Format in all cases: cell-based
adenosine 2a receptor = adenosine 2a receptor (Homo sapiens, UniProt P29274); test: Agonist activity against adenosine 2a receptor (CHO cells, cAMP/SPAP reporter); details: CHO cells transfected with human receptor; basal cAMP via SPAP; mean of all the versions tested
Experimental: (§1) (1) Agonist activity against adenosine 2a, adenosine 1 and adenosine 3 receptor subtypes.
(§2) The effect of test compounds was determined by their effects on basal levels of cAMP (A2a) or on forskolin-enhanced cAMP (A1 and A3) as reflected by changes in levels of SPAP.

adenosine 3 receptor = target: T1, adenosine 3 receptor (Homo sapiens, UniProt P0DMS8); test: Agonist activity against adenosine 3 receptor (CHO cells, forskolin-enhanced cAMP/SPAP reporter); details: CHO cells transfected with human receptor; forskolin-enhanced cAMP via SPAP; mean of all the versions tested
T1 sequence (P0DMS8 1-318): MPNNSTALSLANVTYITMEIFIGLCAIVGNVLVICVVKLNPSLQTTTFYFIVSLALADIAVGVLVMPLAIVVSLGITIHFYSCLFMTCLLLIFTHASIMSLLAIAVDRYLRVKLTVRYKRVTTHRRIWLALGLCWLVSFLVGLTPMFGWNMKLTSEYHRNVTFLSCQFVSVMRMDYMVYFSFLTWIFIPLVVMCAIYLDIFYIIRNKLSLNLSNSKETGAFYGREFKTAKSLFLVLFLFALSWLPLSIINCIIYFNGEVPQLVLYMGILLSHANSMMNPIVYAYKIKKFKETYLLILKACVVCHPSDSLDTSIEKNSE
Experimental: as §1, §2

adenosine 1 receptor = target: T2, adenosine 1 receptor (Homo sapiens, UniProt P30542); test: Agonist activity against adenosine 1 receptor (CHO cells, forskolin-enhanced cAMP/SPAP reporter); details: CHO cells transfected with human receptor; forskolin-enhanced cAMP via SPAP; mean of all the versions tested
T2 sequence (P30542 1-326): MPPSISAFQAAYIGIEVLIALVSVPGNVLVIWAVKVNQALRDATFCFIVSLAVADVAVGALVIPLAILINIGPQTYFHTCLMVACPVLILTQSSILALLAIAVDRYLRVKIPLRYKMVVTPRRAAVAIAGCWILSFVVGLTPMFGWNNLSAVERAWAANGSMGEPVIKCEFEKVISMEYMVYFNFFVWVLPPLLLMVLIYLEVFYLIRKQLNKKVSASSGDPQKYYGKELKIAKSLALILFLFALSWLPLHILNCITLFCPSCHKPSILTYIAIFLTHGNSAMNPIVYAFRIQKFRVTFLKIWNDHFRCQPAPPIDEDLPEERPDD
Experimental: as §1, §2

Sequence of adenosine 2a receptor (P29274 whole entry): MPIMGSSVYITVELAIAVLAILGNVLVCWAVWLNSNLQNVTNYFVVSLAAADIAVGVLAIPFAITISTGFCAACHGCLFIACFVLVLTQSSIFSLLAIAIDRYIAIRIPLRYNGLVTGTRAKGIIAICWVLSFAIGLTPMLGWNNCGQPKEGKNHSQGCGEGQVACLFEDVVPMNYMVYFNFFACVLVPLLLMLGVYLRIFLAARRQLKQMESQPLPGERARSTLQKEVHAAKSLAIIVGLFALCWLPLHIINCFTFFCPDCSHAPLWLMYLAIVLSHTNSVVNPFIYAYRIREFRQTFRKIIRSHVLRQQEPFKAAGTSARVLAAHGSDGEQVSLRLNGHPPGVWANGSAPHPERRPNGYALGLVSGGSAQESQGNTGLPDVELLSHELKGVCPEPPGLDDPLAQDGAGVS

SMILES: CCn1nnc([C@H]2O[C@@H](n3cnc4c(N)nc(NCCc5ccc(N)cc5)nc43)[C@H](O)[C@@H]2O)n1.O=CO [Example 14, (2R,3R,4S,5R)-2-{6-Amino-2-[2-(4-amino-phenyl)-ethylamino]-purin-9-yl}-5-(2-ethyl-2H-tetrazol-5-yl)-tetrahydro-furan-3,4-diol Formate]
- A2a EC50 as a ratio of that of NECA (adenosine 2a receptor): 0.55
- A3 EC50 as a ratio of that of NECA (adenosine 3 receptor): >209
- A1 EC50 as a ratio of that of NECA (adenosine 1 receptor): 181.1

SMILES: CCn1nnc([C@H]2O[C@@H](n3cnc4c(NCCC(C)(C)C)nc(N[C@@H]5CCC[C@H]5O)nc43)[C@H](O)[C@@H]2O)n1.O=C(O)C(F)(F)F.O=C(O)C(F)(F)F [Example 60]
- A2a EC50 as a ratio of that of NECA (adenosine 2a receptor): 4.24
- A3 EC50 as a ratio of that of NECA (adenosine 3 receptor): >385
- A1 EC50 as a ratio of that of NECA (adenosine 1 receptor): 69.10

SMILES: CCn1nnc([C@H]2O[C@@H](n3cnc4c(N)nc(NCc5ccccc5CO)nc43)[C@H](O)[C@@H]2O)n1.O=C(O)C(F)(F)F [Example 86, (2R,3R,4S,5R)-2-[6-Amino-2-(2-hydroxymethyl-benzylamino)-purin-9-yl]-5-(2-ethyl-2H-tetrazol-5-yl)-tetrahydro-furan-3,4-diol Trifluoroacetate]
- A2a EC50 as a ratio of that of NECA (adenosine 2a receptor): 2.16
- A3 EC50 as a ratio of that of NECA (adenosine 3 receptor): >179
- A1 EC50 as a ratio of that of NECA (adenosine 1 receptor): 16.90

SMILES: CCn1nnc(C2OC(n3cnc4c(NCC(c5ccccc5)c5ccccc5)nc(NCCNC(=N)N)nc43)C(O)C2O)n1 (stereo not drawn) [Example 82, N-(2-{6-(2,2-Diphenyl-ethylamino)-9-[5R-(2-ethyl-2H-tetrazol-5-yl)-3R,4S-Dihydroxy-tetrahydro-furan-2R-yl]-9H-purin-2-ylamino}-ethyl)-guanidine bis(Trifluoroacetate)]
- A2a EC50 as a ratio of that of NECA (adenosine 2a receptor): 5.56
- A3 EC50 as a ratio of that of NECA (adenosine 3 receptor): >189
- A1 EC50 as a ratio of that of NECA (adenosine 1 receptor): 520.50

SMILES: CCC(CC)Nc1nc(NCCN2CCOCC2)nc2c1ncn2C1OC(c2nnn(C(C)C)n2)C(O)C1O.O=CO.O=CO [Example 70, (2R,3R,4S,5R)-2-[6-(1-Ethyl-propylamino)-2-(2-morpholin-4-yl-ethylamino)-purin-9-yl]-5-(2-isopropyl-2H-tetrazol-5-yl)-tetrahydro-furan-3,4-diol Diformate]
- A2a EC50 as a ratio of that of NECA (adenosine 2a receptor): 7.24
- A3 EC50 as a ratio of that of NECA (adenosine 3 receptor): >405
- A1 EC50 as a ratio of that of NECA (adenosine 1 receptor): 30.55

SMILES: CCn1nnc([C@H]2O[C@@H](n3cnc4c(NCC(c5ccccc5)c5ccccc5)nc(NCCO)nc43)[C@H](O)[C@@H]2O)n1.O=C(O)C(F)(F)F [Example 47, (2R,3R,4S,5R)-2-[6-(2,2-Diphenyl-ethylamino)-2-(2-hydroxy-ethylamino)-purin-9-yl]-5-(2-ethyl-2H-tetrazol-5-yl)-tetrahydro-furan-3,4-diol Trifluoroacetate]
- A2a EC50 as a ratio of that of NECA (adenosine 2a receptor): 1.06
- A3 EC50 as a ratio of that of NECA (adenosine 3 receptor): >216
- A1 EC50 as a ratio of that of NECA (adenosine 1 receptor): 27.40

SMILES: CCn1nnc(C2OC(n3cnc4c(NC(CO)Cc5ccccc5)nc(NCCc5cn(C)cn5)nc43)C(O)C2O)n1 [Example 8, (2R,3S,4R,5R)-2-(2-Ethyl-2H-tetrazol-5-yl)-5-{6-(1S-hydroxymethyl-2-phenyl-ethylamino)-2-[2-(1-methyl-1H-imidazol-4-yl)-ethylamino]-purin-9-yl}-tetrahydro-furan-3,4-diol Acetate]
- A2a EC50 as a ratio of that of NECA (adenosine 2a receptor): 0.1
- A3 EC50 as a ratio of that of NECA (adenosine 3 receptor): >133
- A1 EC50 as a ratio of that of NECA (adenosine 1 receptor): 12.6

SMILES: Cn1nnc(C2OC(n3cnc4c(NCC(c5ccccc5)c5ccccc5)nc(NCCN5CCOCC5)nc43)C(O)C2O)n1.O=CO.O=CO (stereo not drawn) [Example 98]
- A2a EC50 as a ratio of that of NECA (adenosine 2a receptor): 2.28
- A3 EC50 as a ratio of that of NECA (adenosine 3 receptor): >160
- A1 EC50 as a ratio of that of NECA (adenosine 1 receptor): 126.50

SMILES: Cn1nnc(C2OC(n3cnc4c(NCc5cccc(I)c5)nc(NCCN5CCCC5)nc43)C(O)C2O)n1.O=CO.O=CO [Example 108, (2R,3R,4S,5R)-2-[6-(3-Iodo-benzylamino)-2-(2-pyrrolidin-1-yl-ethylamino)-purin-9-yl]-5-(2-methyl-2H-tetrazol-5-yl)-tetrahydro-furan-3,4-diol bis(Formate)]
- A2a EC50 as a ratio of that of NECA (adenosine 2a receptor): 2.25
- A3 EC50 as a ratio of that of NECA (adenosine 3 receptor): >201
- A1 EC50 as a ratio of that of NECA (adenosine 1 receptor): 111.30

SMILES: CCn1nnc([C@H]2O[C@@H](n3cnc4c(N)nc(NCCNc5ccccn5)nc43)[C@H](O)[C@@H]2O)n1.O=C(O)C(F)(F)F [Example 55, (2R,3R,4S,5R)-2-{6-Amino-2-[2-(pyridin-2-ylamino)-ethylamino)-purin-9-yl}-5-(2-ethyl-2H-tetrazol-5-yl)-tetrahydro-furan-3,4-diol Trifluoroacetate]
- A2a EC50 as a ratio of that of NECA (adenosine 2a receptor): 5.77
- A3 EC50 as a ratio of that of NECA (adenosine 3 receptor): >435
- A1 EC50 as a ratio of that of NECA (adenosine 1 receptor): 1136.00

SMILES: CCn1nnc(C2OC(n3cnc4c(NCCN5CCOCC5)nc(NC(CO)Cc5ccccc5)nc43)C(O)C2O)n1 [Example 85, (2R,3S,4R,5R)-2-(2-Ethyl-2H-tetrazol-5-yl)-5-[2-(1S-hydroxymethyl-2-phenyl-ethylamino)-6-(2-morpholin-4-yl-ethylamino)-purin-9-yl]-tetrahydro-furan-3,4-diol Formate]
- A2a EC50 as a ratio of that of NECA (adenosine 2a receptor): 6.11
- A3 EC50 as a ratio of that of NECA (adenosine 3 receptor): >179
- A1 EC50 as a ratio of that of NECA (adenosine 1 receptor): 192.90

SMILES: Cn1nnc(C2OC(n3cnc4c(NC5CCCC5)nc(NCCN5CCCCC5)nc43)C(O)C2O)n1.O=CO.O=CO [Example 25, (2R,3R,4S,5R)-2-[6-Cyclopentylamino-2-(2-piperidin-1-yl-ethylamino)-purin-9-yl]-5-(2-methyl-2H-tetrazol-5-yl)-tetrahydro-furan-3,4-diol Diformate]
- A2a EC50 as a ratio of that of NECA (adenosine 2a receptor): 0.56
- A3 EC50 as a ratio of that of NECA (adenosine 3 receptor): >388
- A1 EC50 as a ratio of that of NECA (adenosine 1 receptor): 211.8

SMILES: CCn1nnc(C2OC(n3cnc4c(NCc5cccc(I)c5)nc(NC5CCNC5)nc43)C(O)C2O)n1 [Example 23, (2R,3S,4R,5R)-2-(2-Ethyl-2H-tetrazol-5-yl)-5-[6-(3-iodo-benzylamino)-2-(pyrrolidin-3R-ylamino)-purin-9-yl]-tetrahydro-furan-3,4-diol Diformate]
- A2a EC50 as a ratio of that of NECA (adenosine 2a receptor): 0.8
- A3 EC50 as a ratio of that of NECA (adenosine 3 receptor): >336
- A1 EC50 as a ratio of that of NECA (adenosine 1 receptor): 159

SMILES: CC(C)n1nnc([C@H]2O[C@@H](n3cnc4c(N[C@H](CO)Cc5ccccc5)nc(NCCc5ccccn5)nc43)[C@H](O)[C@@H]2O)n1.O=CO [Example 63, (2R,3R,4S,5R)-2-[6-(1S-Hydroxymethyl-2-phenyl-ethylamino)-2-(2-pyridin-2-yl-ethylamino)-purin-9-yl]-5-(2-isopropyl-2H-tetrazol-5-yl)-tetrahydro-furan-3,4-diol Formate]
- A2a EC50 as a ratio of that of NECA (adenosine 2a receptor): 5.86
- A3 EC50 as a ratio of that of NECA (adenosine 3 receptor): >326
- A1 EC50 as a ratio of that of NECA (adenosine 1 receptor): 55.60

SMILES: CCn1nnc([C@H]2O[C@@H](n3cnc4c(N)nc(NCCc5ccc(O)c(O)c5)nc43)[C@H](O)[C@@H]2O)n1.O=CO [Example 15, (2R,3R,4S,5R)-2-{6-Amino-2-[2-(3,4-dihydroxy-phenyl)-ethylamino]-purin-9-yl}-5-(2-ethyl-2H-tetrazol-5-yl)-tetrahydro-furan-3,4-diol Formate]
- A2a EC50 as a ratio of that of NECA (adenosine 2a receptor): 0.55
- A3 EC50 as a ratio of that of NECA (adenosine 3 receptor): >209
- A1 EC50 as a ratio of that of NECA (adenosine 1 receptor): 139.5

SMILES: CCn1nnc(C2OC(n3cnc4c(NCCc5ccccc5)nc(NC5CCNC5)nc43)C(O)C2O)n1 [Example 74, (2R,3S,4R,5R)-2-(2-Ethyl-2H-tetrazol-5-yl)-5-[6-phenethylamino-2-(pyrrolidin-3R-ylamino)-purin-9-yl]-tetrahydro-furan-3,4-diol bis(Formate)]
- A2a EC50 as a ratio of that of NECA (adenosine 2a receptor): 2.79
- A3 EC50 as a ratio of that of NECA (adenosine 3 receptor): >171
- A1 EC50 as a ratio of that of NECA (adenosine 1 receptor): 201.70

SMILES: CCn1nnc([C@H]2O[C@@H](n3cnc4c(NCC(c5ccccc5)c5ccccc5)nc(N[C@H]5CC[C@H](N)CC5)nc43)[C@H](O)[C@@H]2O)n1 (relative stereo) [Example 1, rel-(2R,3R,4S,5R)-2-[2-(trans-4-Amino-cyclohexylamino)-6-(2,2-diphenylethylamino)-purin-9-yl]-5-(2-ethyl-2H-tetrazol-5-yl)-tetrahydro-furan-3,4-diol]
- A2a EC50 as a ratio of that of NECA (adenosine 2a receptor): 0.53
- A3 EC50 as a ratio of that of NECA (adenosine 3 receptor): >549
- A1 EC50 as a ratio of that of NECA (adenosine 1 receptor): 89.3

SMILES: CC(C)n1nnc([C@H]2O[C@@H](n3cnc4c(NCCc5ccccc5)nc(NCCc5cn(C)cn5)nc43)[C@H](O)[C@@H]2O)n1.O=CO [Example 57, (2R,3S,4R,5R)-2-(2-Isopropyl-2H-tetrazol-5-yl)-5-{2-[2-(1-methyl-1H-imidazol-4-yl)-ethylamino]-6-phenethylamino-purin-9-yl}-tetrahydro-furan-3,4-diol Formate]
- A2a EC50 as a ratio of that of NECA (adenosine 2a receptor): 2.42
- A3 EC50 as a ratio of that of NECA (adenosine 3 receptor): >362
- A1 EC50 as a ratio of that of NECA (adenosine 1 receptor): 376.10
